Laboratory results published in patent US20120238532A1, “TREATMENT OF HUMAN OSTEOSARCOMA” (CEDARS-SINAI MEDICAL CENTER, priority 2009, published 2012).

Columns and labels:
[1] = tested on: human OS cell lines (U2OS, G292, MG-63, HT-161, HOS, SAOS-2, and SJSA); test: MTT assay, dose-response in human OS cell lines; format: cell-based
Procedure: (§1) 7 human OS cell lines (U2OS, G292, MG-63, HT-161, HOS, SAOS-2, and SJSA) were used in the study. Each cell line except HT-161 was obtained from the American Type Culture Collection (ATCC, Rockville, Md.). HT-161 was obtained from Dr. Emil Bogenmann (13). All cell lines were tested and authenticated prior to use according to cell line verification test recommendations by ATCC. OS cell lines were maintained in DMEM medium (Mediatech Inc., Herndon, Va.) supplemented with 10% fetal bovine serum (FBS; Atlanta Biological, Lawrenceville, Ga.) in a humidified incubator at 37° C. supplied with 5% CO2. Only the cells in exponential growth phase were used in the study.
(§2) Cell growth and survival were measured by 3-(4,5-dimethylthiazol-2-yl)-2,5-diphenyltetrazolium bromide (MTT) assay. […] After 48 hours of incubation, 10 μl of 5 mg/ml MTT solution (Sigma-Aldrich, St. Louis, Mo.) was added to each well and incubated further for 2 hours. […] For pulse-exposure experiments, MG-63 and SAOS-2 cells were seeded in 96-well plates and exposed to CuB at their ED50. After 2, 9, and 20 hours of exposure, cells were washed twice with PBS and incubated further in CuB-free media. Cell growth was checked by MTT assay at 24, 48, and 72 hours.

MG-63 cells = test: MTT assay, MG-63 (dose-response, pulse-exposure, combination); format: cell-based, human; conditions: pulse-exposed at ED50 for 2, 9, and 20 hours
Procedure: as §1, §2
(§3) Calcusyn 2.0 (Biosoft, Ferguson, Mo.) was used for CI analysis.

SAOS-2 cells [2] = test: MTT assay, SAOS-2 (dose-response, pulse-exposure, combination); format: cell-based, human; conditions: pulse-exposed at ED50 for 2, 9, and 20 hours
Procedure: as §1, §2, §3

SAOS-2 cells [3] = test: Cell cycle analysis (PI, FACS), SAOS-2; format: cell-based, human
Procedure: Cells were harvested and fixed with 70% ethanol at regular time intervals. Fixed cells were stained with propidium iodide (PI) for flow cytometry analysis using BD FACScan (BD Biosciences, San Jose, Calif.). Distribution of cell cycle was analyzed by ModFit LT V2.0 software (Verity Software House, Topsham, Me.). […] After 24, 48, and 72 hours of exposure, cells were harvested and stained with PI and fluorescein isothiocyanate (FITC) using Annexin V-FITC apoptosis detection kit (BD Biosciences) according to the manufacturer's protocol. Cells were subjected to flow cytometry analysis within one hour of staining.

SAOS-2 cells [4] = test: Morphological changes (crystal violet staining), SAOS-2; format: cell-based, human
Procedure: FIG. 2. (A) Graphical representation of the effect of CuB on MG-63 and SAOS-2 cells. Cells were exposed to CuB at their ED50 (70 nM for MG-63 and 50 nM for SAOS-2 cells). Time-dependent antiproliferative activity of CuB on MG-63 and SAOS-2 cells measured by pulse-exposure experiments. Cells were exposed to CuB for 2, 9, or 20 hours, washed extensively, and cultured in the absence of CuB for an additional 24, 48, and 72 hours. Cell growth was measured by MTT assay. Measurements were repeated in triplicates. Data represent mean±SD. Asterisks (**) represent p<0.001 vs DMSO control by t-test. (B) Morphological changes of MG-63 and SAOS-2 cells after exposure to cucurbitacin B. Cells with normal morphology (top) were compared to rounded cells (middle) and multinucleated cells (bottom). […] Representative cells are shown. 400×; scale bar=50 μm. (C) Graphical representation of G2/M cell cycle arrest after 20 hours of exposure to cucurbitacin B. Cells were stained with propidium iodide (PI) and analyzed by FACS. (D) Graphical representation of apoptosis after 72 hours of exposure to cucurbitacin B. Cells were stained with PI and Annexin V-FITC, and analyzed by FACS.

S6K and 4EBP1 = test: Western blotting, downstream targets of mTOR; format: cell-based, human; conditions: MG-63 and SAOS-2 cells
Procedure: (§4) Changes in protein level by CuB were checked by Western blotting. […] After 2, 9, and 20 hours of exposure, cells were harvested and immediately lysed with RIPA buffer (Millipore—Upstate, Temecula, Calif.) supplemented with protease inhibitor cocktail (Roche, San Francisco, Calif.), 0.5 mM PMSF (Roche), and 50 mM NaF (Sigma). After 20 minutes of incubation on ice, protein concentrations were measured by Bradford assay with Bio Rad protein assay solution (Bio-Rad, Hercules, Calif.) and samples were adjusted to the same protein concentration. Samples were mixed with 2× Laemmli sample buffer (Bio-Rad) with 5% β-mercaptoethanol (Sigma) and incubated at 95° C. for 10 min to denature the protein. After brief incubation on ice, proteins were separated by SDS-PAGE, transferred to nitrocellulose membrane (Sigma), and blotted with antibodies from either Cell Signaling Technology (Danvers, Mass.) or Santa Cruz Biotechnology (Santa Cruz, Calif.). Target proteins were visualized by Supersignal West Dura Substrate (Thermo-Pierce, Rockford, Ill.). GAPDH protein was used as a loading control.

phospho-c-Jun and c-Fos = test: Western blotting, phospho-c-Jun and c-Fos; format: cell-based, human; conditions: MG-63 and SAOS-2 cells
Procedure: as §4

[5] = tested on: poly ADP-ribose polymerase (PARP); test: Western blotting, PARP cleavage; format: cell-based, human; conditions: MG-63 and SAOS-2 cells
Procedure: as §4

[6] = tested on: phospho-mTOR (S2448) and survivin; test: Western blots from snap-frozen xenograft tumors; format: in vivo; conditions: mice treated with LD-CuB, day 35
Procedure: as §4, with “Target proteins were visualized by Supersignal West Dura Substrate (Thermo-Pierce, Rockford, Ill.). GAPDH protein was used as a loading control.” left out
All animal experiments strictly followed the guidelines of Cedars-Sinai Medical Center and the National Institute of Health (NIH). […] After 24 hours, tumor size was measured, and any outliers were ruled out by one-way analysis of variance (ANOVA) test. […] Body weights were monitored every 2 days. Tumor size was measured every 2 days, and the tumor volume was calculated using the following formula: A (length)×B (width)×C (height)×0.5236 (16). […]

CC(=O)OC(C)(C)/C=C/C(=O)[C@](C)(O)[C@H]1[C@H](O)C[C@@]2(C)[C@@H]3CC=C4[C@H](C[C@H](O)C(=O)C4(C)C)[C@]3(C)C(=O)C[C@]12C [CuB, cucurbitacin B]
cytotoxic activity in human OS cells [1]: dose- and time-dependent | cell death after pulse-exposure (MG-63 cells): longer exposure to CuB induced more cell death | cell death after pulse-exposure (SAOS-2 cells [2]): longer exposure to CuB induced more cell death | increase of G2/M phase (SAOS-2 cells [3]; 20 hours of exposure): around 3 fold | G2/M phase (SAOS-2 cells [3]; 20 hours of exposure at ED50 (control 15%)): 42% | morphological changes (SAOS-2 cells [4]; 2 hour exposure): Rapid loss of pseudopodia and rounding | morphological changes (SAOS-2 cells [4]; 9 hour-exposure): multinuclearity which was not reversed by CuB removal | downstream targets of mTOR (S6K, 4EBP1) (S6K and 4EBP1): Inhibition of downstream targets of mTOR such as S6K and 4EBP1 | phospho-c-Jun level and c-Fos expression (phospho-c-Jun and c-Fos): Decreased level of phospho-c-Jun and subsequent decrease in c-Fos expression | PARP cleavage [5]: showed cleavage of the precursor molecules in both cells | phospho-mTOR (S2448) and survivin in tumors [6]: decreased amount of phospho-mTOR (S2448) and its downstream target survivin
